The values below come from patent US20060167006A1, “Method of treatment” (priority 2003, published 2006).

One experiment concerns ASPC-1 cells. Nature of the experiment: MTT cell growth assay, ASPC-1 cells (Example 1). Format: cell-based, human. The source says:
Cell culture and proliferation assay: The following materials are purchased: FCS, RPMI and Dulbecco's modified Eagle medium (DMEM), trypsin-EDTA solution, penicillin-streptomycin solution from Biochrom K G (Berlin, Germany). All the other reagents are from Sigma Chemical Co. (St. Louis, Mo., USA). ASPC-1, MIA PaCA-2, human pancreatic cell lines are obtained from American Type Culture Collection (Rockville, Md.). Compound I is kindly provided by Novartis Pharma AG (Basel, Switzerland). T3M4 human pancreatic cell lines are a gift from Dr. R. S. Metzgar (Durham, N.C., USA). TAKA-1 immortalized Syrian golden hamster pancreatic ductal cells are a gift from Prof. P. Pour (University of Nebraska, Omaha, Nebr., USA). Human pancreatic cancer cell lines are routinely grown in DMEM (MIA-PaCA-2) or RPMI (ASPC-1, T3M4) supplemented with 10% FCS, 100 U/ml penicillin and 100 μg/ml streptomycin (complete medium).
TAKA-1 cells are grown in RPMI supplemented with 10% FCS, 100 U/ml penicillin and 100 μg/ml streptomycin. Cells are seeded overnight at a density of 5000 cells/well in 96-well plates and the proliferation assay is performed as described above. […] Cellular MTT is solubilized with acidic isopropanol and the optical density is measured at 570 nm using a plate reader (Dynatech MR 7000). […]
Statistical analysis: Results are expressed as mean±SD. […]
Background: Formazan colour is commonly taken as a measure of viable cells.

In the next experiment the test system is Mia-PaCa-2 cells. Description: GI50 by MTT assay, Mia-PaCa-2 (Example 2). Format: cell-based. As to conditions: Homo sapiens, read-out: GI50 concentration. The source says:
Material and Methods: RPMI-1640 DMEM, trypsin-EDTA, and penicillin-streptomycin are purchased from Invitrogen (Karlsruhe, Germany); FBS from PAN Biotech (Aidenbach, Germany); human recombinant PDGF, IGF-1 and FGF-2 from R&D Systems (Abingdon, United Kingdom), and EGF from Upstate Biotechnology (Hamburg, Germany). Phospho-PDGFR-beta (tyr857) and P-EGFR (tyr1173) polyclonal antibodies are purchased from Santa Cruz Biotechnology, Inc. (Santa Cruz, Calif., USA). Phospho-p44/42 MAPK (Thr202/Tyr204) antibodies are purchased from Cell Signaling Technology (Frankfurt, Germany), anti-rabbit IgG HRPO-linked antibodies and ECL immunoblotting detection reagents from Amersham Biosciences (Amersham Life Science, Amersham, UK), and anti-goat IgG-HPRO peroxidase linked antibodies from Santa Cruz Biotechnology, Inc. (Santa Cruz, Calif., USA). Complete mini-EDTA-free protease inhibitor cocktail tablets and Annexin-V-Fluos are purchased from Roche GmbH (Mannheim, Germany). All other reagents are from Sigma Chemical Company (Taufkirchen, Germany).
Cell culture and MTT assay: Human pancreatic cancer cell lines are routinely grown in DMEM (Colo-357 and Mia-PaCa-2) or RPMI (Aspc-1, BxPc-3, Capan-1, and T3M4) supplemented with 10% FBS, 100 U/ml penicillin, and 100 μg/ml streptomycin (complete medium). […] Formazan products are solubilized with acidic isopropanol, and the optical density is measured at 570 nm. […]

The test system of a further experiment is colorectal cancer (HT29). The settings on record: other reported cancer cells, read-out: GI50 concentration; cited from earlier work.

Where “and” joins values, the source holds several entries; their conditions need not be identical. Equal entries are not always repeated. Where two headings read alike, the source gives them in different places.

For the compound `Cc1ccc(NC(=O)c2ccc(CN3CCN(C)CC3)cc2)cc1Nc1nccc(-c2cccnc2)n1` [Compound I], in the experiment on ASPC-1 cells (Aspc-1, 5 μM Compound I, 72 h, 5 µM), the “Percent growth inhibition by comparison with control cell growth” value was −12.9% and −4.8% and −3.7%. Also, the inhibition at 75 µM in the experiment on ASPC-1 cells (Homo sapiens, ASPC1, 72 h, Aspc-1, 75 μM Compound I, read-out: Percent growth inhibition by comparison with control cell growth) came to 85.6%. The GI50 with Mia-PaCa-2 cells (Mia-PaCa-2, complete medium (10% FBS), 48 h, MTT) is 26 µM; with Mia-PaCa-2 cells (Mia-PaCa-2, low serum conditions (1% FCS)) it was 9 µM; in the experiment with colorectal cancer (HT29) it was 6 µM.

Broadly, the inhibition is the relative decrease from the control value, in per cent.
